{"source": "ChEMBL document CHEMBL2062392", "about": "“Structure-Activity Relationship for Thiirane-Based Gelatinase Inhibitors” (ACS Med Chem Lett, 2012)", "key": {"[1]": {"target": "Matrix metalloproteinase-9 (Homo sapiens, UniProt P14780)", "sequence (P14780 whole entry)": "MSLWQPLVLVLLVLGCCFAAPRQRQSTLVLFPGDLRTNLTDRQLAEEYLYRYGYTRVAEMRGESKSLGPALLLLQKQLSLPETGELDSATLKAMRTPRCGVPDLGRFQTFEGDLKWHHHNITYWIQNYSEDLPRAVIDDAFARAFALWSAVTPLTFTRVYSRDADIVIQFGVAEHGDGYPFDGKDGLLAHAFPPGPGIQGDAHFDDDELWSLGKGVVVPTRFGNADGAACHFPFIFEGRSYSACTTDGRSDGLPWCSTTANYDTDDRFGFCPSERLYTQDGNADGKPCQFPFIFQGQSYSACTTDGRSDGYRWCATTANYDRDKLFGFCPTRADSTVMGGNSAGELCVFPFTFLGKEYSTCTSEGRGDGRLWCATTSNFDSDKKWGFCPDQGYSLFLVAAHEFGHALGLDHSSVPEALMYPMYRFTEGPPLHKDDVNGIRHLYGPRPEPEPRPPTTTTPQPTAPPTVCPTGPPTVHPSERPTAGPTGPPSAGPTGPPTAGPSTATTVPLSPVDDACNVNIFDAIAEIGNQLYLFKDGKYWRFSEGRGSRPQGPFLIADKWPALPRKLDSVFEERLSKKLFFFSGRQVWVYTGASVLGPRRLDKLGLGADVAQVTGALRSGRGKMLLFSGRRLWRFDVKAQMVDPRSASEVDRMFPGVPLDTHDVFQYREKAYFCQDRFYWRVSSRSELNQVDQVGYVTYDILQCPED", "description": "Competitive inhibition of human MMP9 using fluorogenic substrate by Dixon plot analysis"}, "Stromelysin-1 [2]": {"target": "T1, Stromelysin-1 (Homo sapiens, UniProt P08254)", "test": "Competitive inhibition of human MMP3 using fluorogenic substrate at 60 uM by Dixon plot analysis"}, "[3]": {"target": "T2, Matrilysin (Homo sapiens) (UniProt P09237)", "T2 sequence (whole entry)": "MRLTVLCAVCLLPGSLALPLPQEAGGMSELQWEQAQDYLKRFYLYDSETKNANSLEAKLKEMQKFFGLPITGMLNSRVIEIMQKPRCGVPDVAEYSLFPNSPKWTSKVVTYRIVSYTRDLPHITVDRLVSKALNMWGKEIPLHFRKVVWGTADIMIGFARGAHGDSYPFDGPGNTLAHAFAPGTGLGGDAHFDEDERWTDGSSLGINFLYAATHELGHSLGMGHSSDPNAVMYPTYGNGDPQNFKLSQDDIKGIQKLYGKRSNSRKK", "test": "Competitive inhibition of human MMP7 using fluorogenic substrate at 10 uM by Dixon plot analysis"}, "Liver": {"tested_on": "Liver", "test": "Half life in rat liver S9 fraction at 10 uM by UPLC analysis", "assay_type": "ADME, subcellular", "details": "s9, 10 µM"}, "[4]": {"target": "72 kDa type IV collagenase (Homo sapiens, UniProt P08253)", "sequence (P08253 whole entry)": "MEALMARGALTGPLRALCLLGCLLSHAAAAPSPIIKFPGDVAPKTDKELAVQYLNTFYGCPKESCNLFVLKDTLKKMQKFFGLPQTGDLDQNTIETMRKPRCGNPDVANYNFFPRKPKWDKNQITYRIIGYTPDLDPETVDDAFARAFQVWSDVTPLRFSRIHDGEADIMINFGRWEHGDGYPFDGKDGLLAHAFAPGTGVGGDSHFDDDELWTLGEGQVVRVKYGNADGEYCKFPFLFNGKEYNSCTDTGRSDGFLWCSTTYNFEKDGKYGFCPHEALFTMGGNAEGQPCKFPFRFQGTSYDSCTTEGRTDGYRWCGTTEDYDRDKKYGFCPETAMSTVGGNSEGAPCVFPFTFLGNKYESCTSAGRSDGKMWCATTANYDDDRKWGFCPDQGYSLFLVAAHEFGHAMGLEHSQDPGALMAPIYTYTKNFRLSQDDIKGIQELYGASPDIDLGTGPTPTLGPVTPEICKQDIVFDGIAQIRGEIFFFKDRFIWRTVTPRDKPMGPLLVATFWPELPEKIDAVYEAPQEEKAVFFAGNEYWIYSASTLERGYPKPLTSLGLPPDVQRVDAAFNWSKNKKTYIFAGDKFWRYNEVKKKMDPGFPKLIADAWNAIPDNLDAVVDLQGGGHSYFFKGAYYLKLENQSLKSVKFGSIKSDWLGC", "description": "Competitive inhibition of human MMP2 using fluorogenic substrate by Dixon plot analysis"}, "[5]": {"target": "T3, Interstitial collagenase (Homo sapiens) (UniProt P03956)", "T3 sequence (whole entry)": "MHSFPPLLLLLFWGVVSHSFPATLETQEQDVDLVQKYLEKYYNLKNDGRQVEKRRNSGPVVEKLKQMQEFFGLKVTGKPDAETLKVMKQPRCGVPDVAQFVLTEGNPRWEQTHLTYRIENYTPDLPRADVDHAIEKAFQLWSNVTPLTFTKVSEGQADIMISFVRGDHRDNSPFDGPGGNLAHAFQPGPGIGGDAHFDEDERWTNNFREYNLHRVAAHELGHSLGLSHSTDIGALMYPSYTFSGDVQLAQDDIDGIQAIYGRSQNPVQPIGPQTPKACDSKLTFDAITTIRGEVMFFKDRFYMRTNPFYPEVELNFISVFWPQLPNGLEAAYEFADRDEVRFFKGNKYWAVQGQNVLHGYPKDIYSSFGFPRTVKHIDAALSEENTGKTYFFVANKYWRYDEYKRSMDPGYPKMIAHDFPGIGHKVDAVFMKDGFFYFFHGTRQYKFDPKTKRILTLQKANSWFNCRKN", "test": "Competitive inhibition of human MMP1 using fluorogenic substrate at 60 uM by Dixon plot analysis"}, "[6]": {"target": "Matrix metalloproteinase-14 (Homo sapiens, UniProt P50281)", "description": "Competitive inhibition of human MMP14 using fluorogenic substrate by Dixon plot analysis"}, "Matrilysin": {"target": "T4, Matrilysin (Homo sapiens, UniProt P09237)", "T4 sequence (P09237 whole entry)": "T2 sequence (whole entry)", "description": "Competitive inhibition of human MMP7 using fluorogenic substrate by Dixon plot analysis"}, "Interstitial collagenase": {"target": "T5, Interstitial collagenase (Homo sapiens, UniProt P03956)", "T5 sequence (P03956 whole entry)": "T3 sequence (whole entry)", "description": "Competitive inhibition of human MMP1 using fluorogenic substrate by Dixon plot analysis"}, "Stromelysin-1 [7]": {"target": "T1, Stromelysin-1", "description": "Competitive inhibition of human MMP3 using fluorogenic substrate by Dixon plot analysis"}, "[8]": {"target": "T3, Interstitial collagenase (Homo sapiens)", "test": "Competitive inhibition of human MMP1 using fluorogenic substrate at 100 uM by Dixon plot analysis"}, "[9]": {"target": "T2, Matrilysin (Homo sapiens)", "test": "Competitive inhibition of human MMP7 using fluorogenic substrate at 75 uM by Dixon plot analysis"}, "[10]": {"target": "T3, Interstitial collagenase (Homo sapiens)", "test": "Competitive inhibition of human MMP1 using fluorogenic substrate at 50 uM by Dixon plot analysis"}, "[11]": {"target": "T2, Matrilysin (Homo sapiens)", "test": "Competitive inhibition of human MMP7 using fluorogenic substrate at 20 uM by Dixon plot analysis"}, "[12]": {"target": "T2, Matrilysin (Homo sapiens)", "test": "Competitive inhibition of human MMP7 using fluorogenic substrate at 125 uM by Dixon plot analysis"}, "Stromelysin-1 [13]": {"target": "T1, Stromelysin-1", "test": "Competitive inhibition of human MMP3 using fluorogenic substrate at 20 uM by Dixon plot analysis"}, "[14]": {"target": "T3, Interstitial collagenase (Homo sapiens)", "test": "Competitive inhibition of human MMP1 using fluorogenic substrate at 20 uM by Dixon plot analysis"}, "Liver microsomes [15]": {"tested_on": "Liver microsomes", "test": "Drug metabolism in rat liver microsomes assessed as 4-(4-(thiiran-2-ylmethylsulfonyl)phenoxy)benzaldehyde formation at 50 uM after 15 mins by tandem MS analysis", "assay_type": "ADME, Microsome", "details": "0.25 h"}, "Liver microsomes [16]": {"tested_on": "Liver microsomes", "test": "Drug metabolism in rat liver microsomes assessed as 4-(4-(hydroxymethyl)phenoxy)benzenesulfinic acid formation at 50 uM after 15 mins by tandem MS analysis", "assay_type": "ADME, Microsome", "details": "0.25 h"}, "Liver microsomes [17]": {"tested_on": "Liver microsomes", "test": "Drug metabolism in rat liver microsomes assessed as 4-(4-(thiiran-2-ylmethylsulfonyl)phenoxy)benzoic acid formation at 50 uM after 15 mins by tandem MS analysis", "assay_type": "ADME, Microsome", "details": "0.25 h"}}, "note": "Activity calls are given as the source filed them. The rule behind the calls is not given here.", "data": [{"smiles": "O=S(=O)(CC1CS1)c1ccc(Oc2ccc(I)cc2)cc1", "note": "(racemic)", "values": [{"measurement": "Ki", "setting": "[1]", "result": 290, "unit": "nM"}, {"measurement": "inhibition", "setting": "Stromelysin-1 [2]", "result": 18, "unit": "%"}, {"measurement": "inhibition", "setting": "[3]", "result": "inactive"}, {"measurement": "t1/2", "setting": "Liver", "result": 7.2, "unit": "min"}, {"measurement": "Ki", "setting": "[4]", "result": 600, "unit": "nM"}, {"measurement": "inhibition", "setting": "[5]", "result": "inactive"}]}, {"smiles": "O=S(=O)(CC1CS1)c1ccc(Oc2ccc(O)cc2)cc1", "note": "(racemic)", "values": [{"measurement": "Ki", "setting": "[6]", "result": 90, "unit": "nM"}, {"measurement": "Ki", "setting": "Matrilysin", "result": 31000, "unit": "nM"}, {"measurement": "Ki", "setting": "Interstitial collagenase", "result": 128000, "unit": "nM"}, {"measurement": "Ki", "setting": "Stromelysin-1 [7]", "result": 2200, "unit": "nM"}, {"measurement": "t1/2", "setting": "Liver", "result": 23, "unit": "min"}, {"measurement": "Ki", "setting": "[4]", "result": 6, "unit": "nM"}]}, {"smiles": "COCOc1ccc(Oc2ccc(S(=O)(=O)CC3CS3)cc2)cc1", "note": "(racemic)", "values": [{"measurement": "Ki", "setting": "[6]", "result": 140, "unit": "nM"}, {"measurement": "Ki", "setting": "[1]", "result": 160, "unit": "nM"}, {"measurement": "inhibition", "setting": "[8]", "result": 6, "unit": "%"}, {"measurement": "inhibition", "setting": "[9]", "result": 19, "unit": "%"}, {"measurement": "Ki", "setting": "Stromelysin-1 [7]", "result": 12000, "unit": "nM"}, {"measurement": "t1/2", "setting": "Liver", "result": 7.7, "unit": "min"}, {"measurement": "Ki", "setting": "[4]", "result": 180, "unit": "nM"}]}, {"smiles": "CC(C)Oc1ccc(Oc2ccc(S(=O)(=O)CC3CS3)cc2)cc1", "note": "(racemic)", "values": [{"measurement": "Ki", "setting": "[6]", "result": 280, "unit": "nM"}, {"measurement": "Ki", "setting": "[1]", "result": 470, "unit": "nM"}, {"measurement": "inhibition", "setting": "[10]", "result": 11, "unit": "%"}, {"measurement": "inhibition", "setting": "[11]", "result": 30, "unit": "%"}, {"measurement": "Ki", "setting": "Stromelysin-1 [7]", "result": 17000, "unit": "nM"}, {"measurement": "Ki", "setting": "[4]", "result": 300, "unit": "nM"}]}, {"smiles": "O=S(=O)(CC1CS1)c1ccc(Oc2cccc(F)c2)cc1", "note": "(racemic)", "values": [{"measurement": "Ki", "setting": "[6]", "result": 190, "unit": "nM"}, {"measurement": "inhibition", "setting": "[12]", "result": "inactive"}, {"measurement": "Ki", "setting": "[1]", "result": 3000, "unit": "nM"}, {"measurement": "inhibition", "setting": "[8]", "result": 7, "unit": "%"}, {"measurement": "Ki", "setting": "Stromelysin-1 [7]", "result": 27000, "unit": "nM"}, {"measurement": "t1/2", "setting": "Liver", "result": 2.9, "unit": "min"}, {"measurement": "Ki", "setting": "[4]", "result": 450, "unit": "nM"}]}, {"smiles": "CS(=O)(=O)Oc1ccc(Oc2ccc(S(=O)(=O)CC3CS3)cc2)cc1", "note": "(racemic)", "values": [{"measurement": "Ki", "setting": "Stromelysin-1 [7]", "result": 575, "unit": "nM"}, {"measurement": "t1/2", "setting": "Liver", "result": 27, "unit": "min"}]}, {"smiles": "O=S(=O)(CC1CS1)c1ccc(Oc2ccc(F)cc2)cc1", "note": "(racemic)", "values": [{"measurement": "Ki", "setting": "[6]", "result": 580, "unit": "nM"}, {"measurement": "inhibition", "setting": "Stromelysin-1 [13]", "result": 50, "unit": "%"}, {"measurement": "Ki", "setting": "[1]", "result": 44, "unit": "nM"}, {"measurement": "inhibition", "setting": "[11]", "result": 9, "unit": "%"}, {"measurement": "t1/2", "setting": "Liver", "result": 3.7, "unit": "min"}, {"measurement": "Ki", "setting": "[4]", "result": 61, "unit": "nM"}, {"measurement": "inhibition", "setting": "[14]", "result": "inactive"}]}, {"smiles": "O=S(=O)(CC1CS1)c1ccc(Oc2ccccc2)cc1", "note": "(stereo not given)", "values": [{"measurement": "Ki", "setting": "[6]", "result": 37, "unit": "nM"}, {"measurement": "t1/2", "setting": "Liver", "result": 4.4, "unit": "min"}]}, {"smiles": "O=S(=O)(CC1CS1)c1ccc(Oc2ccc(CO)cc2)cc1", "note": "(racemic)", "values": [{"measurement": "Ki", "setting": "[6]", "result": 215, "unit": "nM"}, {"measurement": "Drug metabolism", "setting": "Liver microsomes [15]", "result": "Active"}, {"measurement": "Ki", "setting": "[1]", "result": 390, "unit": "nM"}, {"measurement": "Ki", "setting": "Matrilysin", "result": 48500, "unit": "nM"}, {"measurement": "Ki", "setting": "Interstitial collagenase", "result": 205000, "unit": "nM"}, {"measurement": "Drug metabolism", "setting": "Liver microsomes [16]", "result": "Active"}, {"measurement": "Ki", "setting": "Stromelysin-1 [7]", "result": 4100, "unit": "nM"}, {"measurement": "t1/2", "setting": "Liver", "result": 13, "unit": "min"}, {"measurement": "Drug metabolism", "setting": "Liver microsomes [17]", "result": "Active"}, {"measurement": "Ki", "setting": "[4]", "result": 78, "unit": "nM"}]}, {"smiles": "O=S(=O)(CC1CS1)c1ccc(Oc2ccc(OC(F)(F)F)cc2)cc1", "note": "(racemic)", "values": [{"measurement": "Ki", "setting": "[6]", "result": 5080, "unit": "nM"}, {"measurement": "inhibition", "setting": "Stromelysin-1 [13]", "result": 14, "unit": "%"}, {"measurement": "Ki", "setting": "[1]", "result": 930, "unit": "nM"}, {"measurement": "inhibition", "setting": "[11]", "result": "inactive"}, {"measurement": "t1/2", "setting": "Liver", "result": 7.3, "unit": "min"}, {"measurement": "Ki", "setting": "[4]", "result": 110, "unit": "nM"}, {"measurement": "inhibition", "setting": "[14]", "result": 3, "unit": "%"}]}]}
